Source: patent US12247011B2, “Selective inhibitors of NLRP3 inflammasome” (NodThera Limited, priority 2017, dated 2025)

What follows are compounds tested on IL-1β release upon NLRP3 activation in peripheral blood mononuclear cells (PBMC) (assay: PBMC IC50 Determination Assay). Conditions: Homo sapiens; LPS-primed PBMC, 30 min compound, stimulated with ATP (5 mM) or nigericin (10 μM) for 1 h; IL-1β ELISA; read-out: PBMC IC50.
Type: cell-based

Structure (SMILES)	IC50 [nM]
Cc1nccc(CC(OC(=O)Nc2c3c(cc4c2CCC4)CCC3)C(=O)OC(C)C)n1 (centres unmarked) [Compound 120, Propan-2-yl 2-{[(1,2,3,5,6,7-hexahydro-s-indacen-4-yl)carbamoyl]oxy}-3-(2-methylpyrimidin-4-yl)propanoate]	10 to 100
CC(C)OC(=O)[C@@H](Cn1cnc(C#N)n1)OC(=O)Nc1c2c(cc3c1CCC3)CCC2 [Compound 126, Propan-2-yl (2R)-3-(3-cyano-1H-1,2,4-triazol-1-yl)-2-{[(1,2,3,5,6,7-hexahydro-s-indacen-4-yl)carbamoyl]oxy}propanoate]	10 to 100
O=C(Nc1c2c(cc3c1CCC3)CCC2)O[C@H](Cc1cnccn1)C(=O)O [Compound 109, (2R)-2-{[(1,2,3,5,6,7-hexahydro-s-indacen-4-yl)carbamoyl]oxy}-3-(pyrazin-2-yl)propanoic acid]	100 to 1000
CCOC(=O)COC(=O)Nc1c(C(C)C)cccc1C(C)C [Compound 34, Ethyl 2-({[2,6-bis(propan-2-yl)phenyl]carbamoyl}oxy)acetate]	1000 to 10000
CCOC(=O)[C@@H](Cn1ncnc1C)OC(=O)Nc1c2c(cc3c1CCC3)CCC2 [Compound 103, Ethyl (2R)-2-{[(1,2,3,5,6,7-hexahydro-s-indacen-4-yl)carbamoyl]oxy}-3-(5-methyl-1H-1,2,4-triazol-1-yl)propanoate]	10 to 100
CCOC(=O)C(Cn1cccn1)OC(=O)NC1CCCC1 (centres unmarked) [Compound 54, Ethyl 2-[(cyclopentylcarbamoyl)oxy]-3-(1H-pyrazol-1-yl)propanoate]	1000 to 10000
O=C(COC(=O)Nc1c2c(cc3c1CCC3)CCC2)OC1CC1 [Compound 39, cyclopropyl 2-{[(1,2,3,5,6,7-hexahydro-s-indacen-4-yl)carbamoyl]oxy}acetate]	1000 to 10000
O=C(COC(=O)Nc1c2c(cc3c1CCC3)CCC2)OCC1CC1 [Compound 22, Cyclopropylmethyl 2-{[(1,2,3,5,6,7-hexahydro-s-indacen-4-yl)carbamoyl]oxy}acetate]	100 to 1000
O=C(COC(=O)Nc1c2c(cc3c1CCC3)CCC2)OC1CCCC1 [Compound 32, Cyclopentyl 2-{[(1,2,3,5,6,7-hexahydro-s-indacen-4-yl)carbamoyl]oxy}acetate]	100 to 1000
CCOC(=O)[C@@H](CCc1ccccc1)OC(=O)Nc1c2c(cc3c1CCC3)CCC2 [Compound 30, Ethyl (2R)-2-{[(1,2,3,5,6,7-hexahydro-s-indacen-4-yl)carbamoyl]oxy}-4-phenylbutanoate]	100 to 1000
CCOC(=O)C(Cn1cccn1)OC(=O)Nc1c(C)cccc1C#N (centres unmarked) [Compound 57, Ethyl 2-{[(2-cyano-6-methylphenyl)carbamoyl]oxy}-3-(1H-pyrazol-1-yl)propanoate]	> 10000
